By mortality is commonly meant the percentage killed. One may read the melting point as the temperature of the solid-liquid transition.

Series [1] relates to Spodoptera litura. Briefly: Insecticidal test against Spodoptera litura (treated artificial diet). Format: in vivo. The following applies: 144 h, active ingredient at 500 ppm, 2 ml in 13 g artificial diet, fourth-instar larvae, after 6 days. On the procedure:
A 200-fold dilution containing an active ingredient at 500 ppm, which had been prepared by diluting with water an emulsifiable concentrate of the test compound obtained according to Formulation Example 1, was absorbed at a volume of 2 ml in 13 g of an artificial diet for Spodoptera litura, which had been prepared in a polyethylene cup having a diameter of 11 cm. Ten fourth-instar larvae of Spodoptera litura were set free in the cup. After 6 days, the survival of larvae was examined to determine the mortality. The test was conducted in duplicate.

The test system of series [2] is Tetranychus urticae Koch. The experiment in a line: Test against Tetranychus urticae Koch (spray and soil drench on potted bean). Format: in vivo. Conditions: active ingredient at 500 ppm, 15 ml sprayed per pot plus 2 ml soil drench, after 8 days. On the procedure: Ten female adults of Tetranychus urticae Koch per one leaf were allowed to parasitize to a potting bean at the primary leaf stage harvested for 7 days after seeding, and these pots were placed in a thermostated room at 25° C. After 6 days, a chemical solution containing an active ingredient at 500 ppm, which had been prepared by diluting with water an emulsifiable concentrate of the test compound obtained according to Formulation Example 1, was sprayed at a volume of 15 ml over each pot on a turntable. At the same time, 2 ml of the same solution was drenched in the soil. After 8 days, the degree of damage on the respective plants caused by Tetranychus urticae Koch was examined. The effects were determined according to the following criteria:
−: Damage is scarcely observed.
+: Damage is slightly observed.
++: Damage is observed at the same level as in the non-treated field.

Series [3] relates to Heliothis virescens. Briefly: Insecticidal test against Heliothis virescens (treated artificial diet). Format: in vivo. The following applies: 144 h. On the procedure: A dilution containing an active ingredient at 100 ppm, which had been prepared by diluting with water an emulsifiable concentrate of the test compound obtained according to Formulation Example 1, was incorporated at a volume of 0.2 ml in an artificial diet. A second-instar larva of H. virescens was given the diet and bred in a plastic vessel. Ten insects were used by each treatment. After 6 days, the mortality was determined.

The test system of series [4] is Plutella xylostella. The experiment in a line: Insecticidal test against Plutella xylostella (spray on potted cabbage). Format: in vivo. Conditions: 96 h. As for the experimental part: A chemical solution containing an active ingredient at 50 ppm, which had been prepared by diluting an emulsifiable concentrate of the test compound obtained according to Formulation Example 1 with water containing spreading agent RINOU (Nihon Nouyaku K.K.) to a degree such that the spreading agent had been 1000-fold diluted, was sprayed at a volume 25 ml over each pot of a potting cabbage at the five leaf stage. The treated plants were air dried, on which ten third-instar larvae of Plutella xylostella were set free. After 4 days, the mortality was determined.

Where [5] appears, read: active ingredient at 50 ppm, 25 ml sprayed per pot of cabbage, third-instar larvae, after 4 days, read-out: mortality.
Where [6] appears, read: active ingredient at 100 ppm, 0.2 ml in artificial diet, second-instar larva, after 6 days, read-out: mortality.

Like-named read-outs stand apart in the source and are kept apart here.

For the compound `ClC(Cl)=CCOc1cc(Cl)c(OCc2ccc(Cl)nc2)c(Cl)c1` [Compound 1, 3,5-Dichloro-4-(6-chloro-3-pyridylmethyloxy)-1-(3,3-dichloro-2-propenyloxy)benzene], the mortality at 500 ppm in series [1] is no less than 80%. Moreover, the “degree of damage on the plants caused by Tetranychus urticae Koch” value (from here on “degree of damage on the plants caused”) in series [2] is on record as ““−” or “+””.

In series [1], `ClC(Cl)=CCOc1cc(Cl)c(OCc2ccc(Cl)nc2Cl)c(Cl)c1` [Compound 2, 3,5-Dichloro-4-(2,6-dichloro-3-pyridylmethyloxy)-1-(3,3-dichloro-2-propenyloxy)benzene] returned a mortality at 500 ppm of no less than 80%.

Compound `ClC(Cl)=CCOc1cc(Cl)c(OCc2ccccn2)c(Cl)c1` [Compound 5, 3,5-Dichloro-4-(2-pyridylmethyloxy)-1-(3,3-dichloro-2-propenyloxy)benzene] displayed a melting point of 48.2 °C.

`ClC(Cl)=CCOc1cc(Cl)c(OCc2cccs2)c(Cl)c1` [Compound 6, 3,5-Dichloro-4-(2-thienylmethyloxy)-1-(3,3-dichloro-2-propenyloxy)benzene] showed a melting point of 44.6 °C.

`ClC(Cl)=CCOc1cc(Cl)c(OCc2ccco2)c(Cl)c1` [Compound 7, 3,5-Dichloro-4-(2-furanylmethyloxy)-1-(3,3-dichloro-2-propenyloxy)benzene] gave a melting point of 46 °C. Further, the “degree of damage on the plants caused” value in series [2] is given as ““−” or “+””.

Take `ClC(Cl)=CCOc1cc(Cl)c(OCc2cccnc2)c(Cl)c1` [Compound 8, 3,5-Dichloro-4-(3-pyridylmethyloxy)-1-(3,3-dichloro-2-propenyloxy)benzene]: the melting point stood at 105.9 °C.

`ClC(Cl)=CCOc1cc(Cl)c(OCc2ccncc2)c(Cl)c1` [Compound 9, 3,5-Dichloro-4-(4-pyridylmethyloxy)-1-(3,3-dichloro-2-propenyloxy)benzene] came in with a melting point of 74 °C.

For `ClC(Cl)=CCOc1cc(Cl)c(OCCc2cccs2)c(Cl)c1` [Compound 10, 3,5-Dichloro-4-(2-(2-thienyl)ethoxy)-1-(3,3-dichloro-2-propenyloxy)benzene], in series [2], the “degree of damage on the plants caused” value was ““−” or “+””.

`CN1C=CSC1CCOc1c(Cl)cc(OCC=C(Cl)Cl)cc1Cl` (stereo not shown) [Compound 11, 3,5-Dichloro-4-(2-(3-methylthiazol-2-yl)ethoxy)-1-(3,3-dichloro-2-propenyloxy)benzene] had a melting point of 30.4 °C.

In series [1], `ClC(Cl)=CCOc1cc(Cl)c(OCCc2ccsc2)c(Cl)c1` [Compound 14, 3,5-Dichloro-4-(2-(3-thienyl)ethoxy)-1-(3,3-dichloro-2-propenyloxy)benzene] yielded a mortality at 500 ppm of no less than 80%.

For the compound `ClC(Cl)=CCOc1cc(Cl)c(OCCCc2ccncc2)c(Cl)c1` [Compound 15, 3,5-Dichloro-4-(3-(4-pyridyl)propyloxy)-1-(3,3-dichloro-2-propenyloxy)benzene], the “degree of damage on the plants caused” value in series [2] is recorded as ““−” or “+””.

`ClC(Cl)=CCOc1cc(Cl)c(OCCSc2ccncc2)c(Cl)c1` [Compound 19, 3,5-Dichloro-4-(2-(4-pyridylthio)ethoxy)-1-(3,3-dichloro-2-propenyloxy)benzene] yielded a melting point of 74.7 °C.

The compound `ClC(Cl)=CCOc1cc(Cl)c(OCCCc2cccnc2)c(Cl)c1` [Compound 20, 3,5-Dichloro-4-(3-(3-pyridyl)propyloxy)-1-(3,3-dichloro-2-propenyloxy)benzene] registered a melting point of 48.3 °C.

`O=C(OCCCOc1c(Cl)cc(OCC=C(Cl)Cl)cc1Cl)c1cnc2ccccc2c1` [Compound 28, 3-(2,6-Dichloro-4-(3,3-dichloro-2-propenyloxy)phenoxy)propyl 3-quinolinate] gave a melting point of 92.3 °C.

As for `ClC(Cl)=CCOc1cc(Cl)c(OCCCSc2ccccn2)c(Cl)c1` [Compound 30, 3,5-Dichloro-4-(3-(2-pyridylthio)propyloxy)-1-(3,3-dichloro-2-propenyloxy)benzene], the “degree of damage on the plants caused” value in series [2] is on record as ““−” or “+””.

`ClC(Cl)=CCOc1cc(Cl)c(OCCc2nc3ccccc3o2)c(Cl)c1` [Compound 32, 3,5-Dichloro-4-(2-(2-benzoxazolyl)ethoxy)-1-(3,3-dichloro-2-propenyloxy)benzene] showed a melting point of 61.2 °C. Besides, the “degree of damage on the plants caused” value in series [2] was ““−” or “+””.

For `CC(C)(COc1c(Cl)cc(OCC=C(Cl)Cl)cc1Cl)Oc1cccc(Cl)n1` [Compound 33, 3,5-Dichloro-4-(2-methyl-2-(2-(6-chloro)pyridyloxy)propyloxy)-1-(3,3-dichloro-2-propenyloxy)benzene], the “degree of damage on the plants caused” value in series [2] is listed as ““−” or “+””.

Take `FC(F)(F)c1ccc(OCCCOc2c(Cl)cc(OCC=C(Cl)Cl)cc2Cl)nc1` [Compound 36, 3,5-Dichloro-4-(3-(5-trifluoromethyl-2-pyridyloxy)propyloxy)-1-(3,3-dichloro-2-propenyloxy)benzene]: the mortality at 100 ppm in series [3] is no less than 80%. The same compound had a mortality at 50 ppm in series [4] of no less than 80%.

As to `FC(F)(F)c1cnc(OCCCOc2c(Cl)cc(OCC=C(Cl)Cl)cc2Cl)c(Cl)c1` [Compound 37, 3,5-Dichloro-4-(3-(3-chloro-5-trifluoromethyl-2-pyridyloxy)propyloxy)-1-(3,3-dichloro-2-propenyloxy)benzene], in series [4] (setting [5]), the mortality at 50 ppm is no less than 80%.

Turning to `ClC(Cl)=CCOc1cc(Cl)c(OCCCSc2nc3ccccc3[nH]2)c(Cl)c1` [Compound 39, 3,5-Dichloro-4-(3-(2-benzimidazolylthio)propyloxy)-1-(3,3-dichloro-2-propenyloxy)benzene], the melting point was found to be 120.7 °C.

Consider `FC(F)(F)c1ccc(OCCCCOc2c(Cl)cc(OCC=C(Cl)Cl)cc2Cl)nc1` [Compound 42, 3,5-Dichloro-4-(4-(5-trifluoromethyl-2-pyridyloxy)butyloxy)-1-(3,3-dichloro-2-propenyloxy)benzene], for which the mortality at 100 ppm in series [3] (setting [6]) is no less than 80%. In series [4] (setting [5]), the mortality at 50 ppm is no less than 80%.

On to `FC(F)(F)c1ccc(OCCCCCOc2c(Cl)cc(OCC=C(Cl)Cl)cc2Cl)nc1` [Compound 43, 3,5-Dichloro-4-(5-(5-trifluoromethyl-2-pyridyloxy)pentyloxy)-1-(3,3-dichloro-2-propenyloxy)benzene], for which the mortality at 100 ppm in series [3] (setting [6]) is no less than 80%.

Turning to `ClC(Cl)=CCOc1cc(Cl)c(NCCCOc2ccccn2)c(Cl)c1` [Compound 71, 3,5-Dichloro-4-(3-(2-pyridyloxy)propylamino)-1-(3,3-dichloro-2-propenyloxy)benzene], the melting point is 76.2 °C.

These data come from US6589914B2, “Dihalopropene compounds, insecticidal/acaridcidal agents containing same, and intermediates for their production” (Sumitomo Chemical Company, Limited, priority 1994, dated 2003).
